Structures are written as SMILES. Read-outs that look alike come from different tables or passages of the source.

We go through 17 compounds from patent US20040138301A1, “Chemical uncouplers for the treatment of obesity” (priority 2002, published 2004).

For one data set, the system named is isolated mitochondria. The experiment in a line: Assay (II): effect of chemical uncouplers on mitochondrial respiration using isolated mitochondria (oxygen consumption). The class given is biochemical. The protocol:
Assay (II)—The Effect of Chemical Uncouplers on Mitochondrial Respiration Using Isolated Mitochondria.
This assay is used to investigate if the increase in glucose utilisation caused by the test compounds observed in the glucose utilisation assay is due to an increase in the respiration of the mitochondria. This is done by measuring oxygen consumption in isolated mitochondria.
A Clark oxygen electrode is used to determine the oxygen consumption. The isolated mitochondria are added to medium containing oxygen and nutrients (e.g. Succinate) and the rate of oxygen consumptions is measured, when stabilized a small amount of ADP is added to increase the respiration and an increase in the rate of oxygen consumption is measured. When the rate of oxygen consumption again has stabilized the test compound is added and a further increase in oxygen consumption is seen. This experiment is done with and without the addition of oligomycin which is an inhibitor of the ATP-synthase. Finally, the test compound is examined without adding ADP. If the test compound stimulates the rate of oxygen consumption in all setups, it is regarded as a chemical uncoupler.

Another data set has as its system HEP-G2 cells. The experiment in a line: cells. As to conditions: for HEP-G2 Tox: human, 3 h. A digest of the protocol:
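HEP-G2 cells were treated with compound for 3 h at 37 °C in MEM/0.5% BSA containing 10 μCi/ml D-(3-^3H(N))-glucose, then lysed with TCA; ^3H-water released via the respiratory chain was recovered by evaporation at 50 °C and counted. Values are corrected for non-specific and basal counts, expressed as % of maximal FCCP or DNP stimulation, and EC50 is from a variable-slope sigmoidal fit.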

The conditions of data set [1]: humans; cited from earlier work.
The next data set has as its system FSK-4 cells. In words: Assay (IV): Glucose utilisation in FSK-4 cells. The class given is cell-based. The following applies: for EC50: read-out: FSK4 EC50; for Emax: read-out: FSK4 Emax (% of FCCP).
[2] abbreviates: Homo sapiens, HepG2, 3 h, read-out: HEP-G2 EC50.
Setting [3] is: Homo sapiens, HepG2, read-out: HEP-G2 Emax (% of FCCP).
Setting [4] is: Homo sapiens, HepG2, read-out: HEP-G2 Emax (μM).
Where [5] appears, read: Homo sapiens, HepG2, 3 h, read-out: HEP-G2 EC50, HEP-G2 cells, glucose utilisation, 3 hours incubation.
[6] abbreviates: Homo sapiens, HepG2, read-out: HEP-G2 Emax (% of FCCP), HEP-G2 cells, maximal stimulation relative to FCCP.
[7] abbreviates: Homo sapiens, HepG2, read-out: HEP-G2 Emax (μM), HEP-G2 cells, concentration at which Emax is achieved (CEmax).
Where [8] appears, read: FSK-4 cells, glucose utilisation, 24 hours incubation.
Setting [9] is: FSK-4 cells, maximal efficacy relative to FCCP.

As to `CC(CCC(=O)O)(c1ccc(O)c([N+](=O)[O-])c1)c1ccc(O)c([N+](=O)[O-])c1` [Example 1, 4,4-Bis-(4-Hydroxy-3-Nitrophenyl)-Valeric Acid], the “Mito State-4” value with isolated mitochondria is “Ok”. The EC50 with HEP-G2 cells (setting [2]) was determined as 40 µM. The Emax with HEP-G2 cells (setting [3]) amounted to 45%. Further, the EC (Emax) in the data set with HEP-G2 cells (setting [4]) was 100 µM.

For the compound `CC(C)(C)c1cc(C(=O)Nc2ccc([N+](=O)[O-])cc2Cl)c(O)c(C(C)(C)C)c1` [Example 40, 3,5-Di-Tert-Butyl-N-(2-Chloro-4-Nitro-Phenyl)-2-Hydroxy-Benzamide], the “Mito State-4” value in the data set with isolated mitochondria is “Ok”. In the data set with HEP-G2 cells (setting [5]), the EC50 worked out at 0.58 µM. Besides, the Emax with HEP-G2 cells (setting [6]) was 105%. For the same compound, the EC (Emax) with HEP-G2 cells (setting [7]) worked out at 3 µM.

As for `O=[N+]([O-])c1ccc(O)c([N+](=O)[O-])c1` [Example 26, 2,4-Dinitrophenol, reference compound], the “lowest dose which could be lethal relative to average dose giving a desired 50% increase in basal metabolic rate” value in data set [1] was “twice”. Also, the “Mito State-4” value in the data set with isolated mitochondria is recorded as “Ok”. Moreover, the results for the EC50 with FSK-4 cells (24 h) and in the data set with HEP-G2 cells (setting [2]) were 90 µM and 225 µM, respectively. In addition, the maximal effect (Emax) in the data set with FSK-4 cells turned out to be 95%; in the data set with HEP-G2 cells (setting [3]), 100%. Also, the EC (Emax) in the data set with HEP-G2 cells (setting [4]) came out at 500 µM.

Turning to `CC(C)(C)c1cc(C=C(C#N)C#N)cc(C(C)(C)C)c1O` [Example 25, 2,6-Di-t-Butyl-4-(2′,2′-Dicyanovinyl)Phenol, reference compound], the “Mito State-4” value in the data set with isolated mitochondria was “Ok”. For the same compound, the EC50 in the data set with FSK-4 cells (24 h) came out at 0.01 µM; in the data set on HEP-G2 cells (setting [2]), 0.48 µM. For the same compound, the values for the Emax in the data set on FSK-4 cells and in the data set on HEP-G2 cells (setting [3]) were 110% and 100%, respectively. Further, in the data set with HEP-G2 cells (setting [4]), the EC (Emax) is 10 µM.

`CCOC(=O)/C(=C/c1cc(C(C)(C)C)c(O)c(C(C)(C)C)c1)C(C)=O` [Example 69, 2-Acetyl-3-(3,5-Di-Tert-Butyl-4-Hydroxy-Phenyl)-Acrylic Acid Ethyl Ester]: the values for the EC50 in the data set with FSK-4 cells (setting [8]) and in the data set with HEP-G2 cells (setting [5]) were 9 µM and 100 µM, respectively. The Emax worked out at 40% with FSK-4 cells (setting [9]) and 58% in the data set with HEP-G2 cells (setting [6]). Also, the EC (Emax) in the data set on HEP-G2 cells (setting [7]) came to 300 µM. In addition, in the data set on HEP-G2 cells, the “HEP-G2 Tox” value is on record as “Tox 1 mM”.

With `O=C(Nc1ccc([N+](=O)[O-])cc1Cl)c1cccc(-c2ccccc2)c1O` [Example 44, 2-Hydroxy-Biphenyl-3-Carboxylic Acid (2-Chloro-4-Nitro-Phenyl)-Amide], the EC50 is 3.6 µM with FSK-4 cells (setting [8]); 2 µM in the data set on HEP-G2 cells (setting [5]); 1.4 µM with HEP-G2 cells (read-out: HEP-G2 EC50, HEP-G2 cells, glucose utilisation, 3 hours incubation). Besides, the figures for the Emax in the data set with FSK-4 cells (setting [9]) and in the data set with HEP-G2 cells (setting [6]) were 90% and 94%, respectively.

With `Cc1c(Br)cc(C(C)(C)C)c(O)c1C(=O)Nc1ccc(C#N)cc1Cl` [Example 51, 3-Bromo-5-Tert-Butyl-N-(2-Chloro-4-Cyano-Phenyl)-6-Hydroxy-2-Methyl-Benzamide], the concentration for a half-maximal effect (EC50) is 0.3 µM with FSK-4 cells (setting [8]) and 0.4 µM in the data set with HEP-G2 cells (setting [5]). Further, the results for the maximal effect (Emax) with FSK-4 cells (setting [9]) and in the data set on HEP-G2 cells (setting [6]) were 105% and 100%, respectively. Also, the EC (Emax) in the data set with HEP-G2 cells (setting [7]) stood at 3 µM.

With `CC(C)(C)c1cc([N+](=O)[O-])cc([N+](=O)[O-])c1O` [Example 73, 2-Tert-Butyl-4,6-Dinitro-Phenol], the figures for the EC50 with FSK-4 cells (setting [8]) and in the data set on HEP-G2 cells (setting [2]) were 7 µM and 7.3 µM, respectively. For the same compound, the figures for the Emax in the data set with FSK-4 cells (setting [9]) and in the data set on HEP-G2 cells (setting [3]) were 100% and 70%, respectively. Besides, the EC (Emax) in the data set on HEP-G2 cells (setting [4]) was 300 µM.

For `CC(C)(C)c1cc([N+](=O)[O-])cc(C(C)(C)C)c1O` [Example 72, 2,6-Di-Tert-Butyl-4-Nitro-Phenol], the “Mito State-4” value with isolated mitochondria is given as “Ok”. In addition, the EC50 in the data set on HEP-G2 cells (setting [2]) was found to be 13 µM. For the same compound, the Emax with HEP-G2 cells (setting [3]) worked out at 100%. Further, in the data set on HEP-G2 cells (setting [4]), the EC (Emax) is 100 µM.

With `CC(C)(C)c1cc(/C=C(\C#N)c2ccc(C(F)(F)F)cc2)cc(C(C)(C)C)c1O` [Example 81, 3-(3,5-Di-Tert-Butyl-4-Hydroxy-Phenyl)-2-(4-Trifluoromethyl-Phenyl)-Acrylonitrile], the 50% effective concentration (EC50) in the data set on FSK-4 cells (setting [8]) and in the data set on HEP-G2 cells (setting [2]) was 7 µM each time. The maximal effect (Emax) in the data set with FSK-4 cells (setting [9]) amounted to 140%; in the data set on HEP-G2 cells (setting [3]), 130%. In addition, the EC (Emax) with HEP-G2 cells (setting [4]) is 100 µM.

Take `Cc1ccc(C(C)(C)C)c(O)c1C(=O)Nc1ccc([N+](=O)[O-])cc1C(F)(F)F` [Example 59, 3-Tert-Butyl-2-Hydroxy-6-Methyl-N-(4-Nitro-2-Trifluoromethyl-Phenyl)-Benzamide]: the results for the concentration giving a half-maximal response (EC50) in the data set on FSK-4 cells (setting [8]) and in the data set on HEP-G2 cells (setting [5]) were 0.03 µM and 0.11 µM, respectively. For the same compound, the Emax in the data set on FSK-4 cells (setting [9]) was determined as 100%; in the data set on HEP-G2 cells (setting [6]), 110%. For the same compound, the EC (Emax) with HEP-G2 cells (setting [7]) is 10 µM.

For `CC(C)(C)c1cc(C[P+](C2CCCCC2)(C2CCCCC2)C2CCCCC2)cc(C(C)(C)C)c1O` [Example 12, (3,5-Di-Tert-Butyl-4-Hydroxybenzyl)Tricyclohexylphosphonium Bromide], the results for the EC50 with FSK-4 cells (setting [8]) and in the data set with HEP-G2 cells (setting [5]) were 0.3 µM and 1.2 µM, respectively. The maximum response (Emax) came to 85% in the data set on FSK-4 cells (setting [9]) and 70% in the data set on HEP-G2 cells (setting [6]). For the same compound, the EC (Emax) in the data set on HEP-G2 cells (setting [7]) turned out to be 10 µM. Besides, in the data set on HEP-G2 cells, the “HEP-G2 Tox” value is recorded as “Tox 0.03 mM”.

`Cc1c(Br)cc(C(C)(C)C)c(O)c1C(=O)Nc1ccc(Cl)cc1Cl` [Example 53, 3-Bromo-5-Tert-Butyl-N-(2,4-Dichloro-Phenyl)-6-Hydroxy-2-Methyl-Benzamide]: the values for the half-maximal effective concentration (EC50) with FSK-4 cells (setting [8]) and with HEP-G2 cells (setting [5]) were 15 µM and 4.15 µM, respectively. Moreover, the Emax in the data set on FSK-4 cells (setting [9]) turned out to be 95%; in the data set on HEP-G2 cells (setting [6]) it was 90%. The EC (Emax) with HEP-G2 cells (setting [7]) came out at 10 µM.

For the compound `CCOC(=O)/C(C#N)=C/c1cc(C(C)(C)C)c(O)c(C(C)(C)C)c1` [Example 15, 2-Cyano-3-(3,5-Di-Tert-Butyl-4-Hydroxyphenyl)-Acrylic Acid Ethyl Ester], the concentration giving a half-maximal response (EC50) in the data set on FSK-4 cells (setting [8]) worked out at 2 µM; in the data set on HEP-G2 cells (setting [5]), 0.7 µM. Also, the maximal effect (Emax) in the data set on FSK-4 cells (setting [9]) came to 65%; in the data set with HEP-G2 cells (setting [6]) it was 100%. In addition, the EC (Emax) in the data set on HEP-G2 cells (setting [7]) worked out at 3 µM.

Turning to `Cc1c(Br)cc(C(C)(C)C)c(O)c1C(=O)Nc1c(Cl)cc(Cl)cc1C(F)(F)F` [Example 62, 3-Bromo-5-Tert-Butyl-N-(2,4-Dichloro-6-Trifluoromethyl-Phenyl)-6-Hydroxy-2-Methylbenzamide], the concentration giving a half-maximal response (EC50) was determined as 1.2 µM in the data set with FSK-4 cells (setting [8]) and 2.3 µM with HEP-G2 cells (setting [5]). In addition, the Emax stood at 85% in the data set with FSK-4 cells (setting [9]) and 115% in the data set on HEP-G2 cells (setting [6]). In the data set with HEP-G2 cells (setting [7]), the EC (Emax) came out at 30 µM.

As for `Cc1c(Cl)cc(C(C)(C)C)c(O)c1C(=O)Nc1ccc(C#N)c(C(F)(F)F)c1` [Example 43, 3-Tert-Butyl-5-Chloro-N-(4-Cyano-3-Trifluoromethyl-Phenyl)-2-Hydroxy-6-Methyl-Benzamide], the figures for the 50% effective concentration (EC50) with FSK-4 cells (setting [8]) and with HEP-G2 cells (setting [2]) were 0.3 µM and 0.85 µM, respectively. Besides, the maximal response (Emax) with FSK-4 cells (setting [9]) amounted to 80%; in the data set on HEP-G2 cells (setting [3]), 95%. Also, the EC (Emax) in the data set on HEP-G2 cells (setting [4]) worked out at 3 µM.

Regarding `CC(C)(C)c1cc(C[P+](c2ccccc2)(c2ccccc2)c2ccccc2)cc(C(C)(C)C)c1O` [Example 11, (3,5-Di-Tert-Butyl-4-Hydroxybenzyl)Triphenylphosphonium Bromide], the half-maximal effective concentration (EC50) in the data set with FSK-4 cells (setting [8]) was 0.3 µM; in the data set on HEP-G2 cells (setting [5]) it was 0.7 µM. The Emax with FSK-4 cells (setting [9]) amounted to 90%; in the data set on HEP-G2 cells (setting [6]) it was 75%. For the same compound, the EC (Emax) in the data set on HEP-G2 cells (setting [7]) came to 3 µM. Also, the “HEP-G2 Tox” value with HEP-G2 cells is listed as “Tox 0.03 mM”.
